In patent publication EP1860116A1, “Trehalose conjugate with carnosine having antioxidant activity, stable to enzymatic hydrolysis, procedure for its preparation, and pharmaceutical, cosmetic and nutraceutical compositions that contain it” (Universita' Degli Studi Di Catania, priority 2006, dated 2007):

Columns and labels:
[1] = test system: low-density lipoproteins (LDL); experiment: Antioxidant activity towards low-density lipoproteins (LDL): Cu2+-induced lipid peroxidation, MDA determined by HPLC; type: biochemical; conditions: human LDL, peroxidation induced by copper (II) ions (40 µM), 4 h at 37°C, pH 7.4; conjugate at 5, 10, 20, 50, 100 and 200 µM; compared with carnosine
Method: In order to test the antioxidant activity of carnosine and the carbohydrate derivative, freeze-dried human LDL (Sigma) was used as lipid peroxidation target.
The MDA standard was obtained by hydrolysis of the bis-dimethylacetal derivative (Sigma) in 1% sulphuric acid.
The process of peroxidation of humane LDLs (Sigma), suspended in 20 mM ammonium acetate at pH 7.4, was triggered by the addition of Cu^2+ (40 µM) to the protein suspension, followed by a 4 h incubation at 37°C (Free Radic. Res. 35, 953, 2001; J. Agr. Food Chem. 45, 3362, 1997). The lipid peroxidation inhibiting effect of the trehalose-carnosine conjugate was evaluated by adding this molecule to the LDL-Cu^2+ system at increasing concentrations (5, 10, 20, 50, 100 and 200 µM). The peroxidation reaction was interrupted by adding an equal volume of acetonitrile, followed by double extraction with chloroform.
For the determination of MDA, the end product of lipid peroxidation, the aqueous extract was analysed by HPLC, using an analysis method reported in Anal. Biochem. 197, 191, 1991 (data reported in figure 1).

[2] = test system: carnosinase contained in rat brain homogenate; experiment: Enzymatic hydrolysis by brain carnosinase (rat brain homogenate, histidine quantified fluorometrically with OPA); type: in vitro ADME; conditions: 20% rat brain homogenate, Tris buffer pH 8.1, 37°C for 2 h, compared with carnosine
Method: The breakdown of the carbohydrate conjugate of carnosine was measured by the following method: a 20% homogenate of rat brain was prepared with a 50 mM Tris buffer (Tris-(hydroxymethyl)-aminomethane) pH 8.1 containing 2 mM DTT (di-thio-threitol), and the mixture was centrifuged for 20 min at 19000 rpm. Part of the supernatant solution (192 µl) was incubated at 37°C for 2 h with the carnosine-trehalose conjugate, in a final volume of 300 µl. The reaction was interrupted by adding acetonitrile (300 µL), and the solution was subjected to double extraction with chloroform. The amount of histidine in the final solution was quantified fluorometrically after reacting with orthophthaldialdehyde OPA (Fluka), according to a method reported in Clin. Chim.

O=C(CCNC[C@H]1O[C@H](O[C@H]2O[C@H](CO)[C@@H](O)[C@H](O)[C@H]2O)[C@H](O)[C@@H](O)[C@@H]1O)N[C@@H](Cc1c[nH]cn1)C(=O)O [compound I, 6-(β-alanyl-L-histidine)-6-deoxy-α,α'-trehalose]
antioxidant activity (lipid peroxidation inhibiting effect) [1]: dose-dependent antioxidant effect, which was significantly greater than that of carnosine | resistance to enzymatic hydrolysis by carnosinase [2]: more resistant to the carnosinase contained in rat brain homogenate than carnosine | resistance to enzymatic hydrolysis by carnosinase ([2]; listed as compound according to the invention): more resistant to enzymatic hydrolysis than carnosine
